# Where a name gives a salt, the structure may show the parent alone.
# Columns and labels:
# huBChE = target: T1, huBChE (Homo sapiens, UniProt P06276); assay: Kinetic studies for huBChE inhibition, stopped-flow progress curves; type: biochemical; settings: hydrolysis by huBChE, pH 8
# T1 construct: made in house
# Description: This situation is referred to as tight binding inhibition. […] Of note, a high enzyme concentration was used in order to investigate the time-dependent inhibition and to reach the plateau of the reaction, which allowed precise quantification of the substrate concentration. […] The curves were analyzed simultaneously using the ENZO application[36].
# Briefly, the time-course of yellow color formation was followed on a Bio-logic SFM-2000 stopped flow apparatus at 25 °C. […] The buffer solutions were injected into a mixing chamber using syringes. […] The progress curves obtained were analyzed simultaneously, using the ENZO application[36], which can derive and numerically solve a system of differential equations, and fit their coefficients. Several reaction mechanisms were tested.
# ABCB1 = assay: Caco-2 monolayer bidirectional permeability assay; settings: human; for Papp A→B at 120 min: Caco-2, apical-to-basolateral apparent permeability coefficient; for Papp B→A at 120 min: Caco-2, basolateral-to-apical apparent permeability coefficient
# Description: (§1) They were grown on Transwell® culture inserts with a polycarbonate membrane (diameter, 12 mm; pore size, 0.4 µm). 50,000 cells/filter membranes were used for seeding and the medium was changed every two days. At day 18, transepithelial electrical resistance (TEER) was measured for each filter with Caco-2 cell monolayers. […] The samples were acidified by dilution with the same volume of 0.01M HCl before fluorescence measurements.
# (§2) Ringer buffer with 10 mM d-glucose or 10 mM mannitol on apical and basolateral side of the tissue, respectively, was used as an incubation saline. […] The stock solutions were added either to the apical or to the basolateral compartment to obtain bidirectional permeability measurements. Six samples were withdrawn in 20 min intervals. Each time 300 µl was taken from the 1500 µL basolateral acceptor compartment and 100 µL from the 500 µL apical acceptor compartment. These volumes were immediately replaced by the appropriate fresh incubation saline. […] All apparent permeability coefficients were calculated as described previously^24.
# Caco-2 cells = assay: Caco-2 monolayer bidirectional permeability assay; settings: ABCB1 marker substrate, no inhibitor
# Description: as §1, §2
# in vitro = settings: human, human plasma
# Description: (§3) The plasma metabolic stability and hepatic clearance were estimated by the substrate depletion method.
# (§4) The incubation was performed in a 37 °C water bath for 2 h. An aliquot of the incubation mixture was transferred to acetonitrile at 0, 0.5, 1, 1.5 and 2 h, respectively. Samples were then mixed and centrifuged. Supernatants were used for HPLC-MS/MS analysis using selected reaction monitoring, and peak areas were recorded for each analyte. The HPLC conditions consisted of a binary LC pump with autosampler, a C18 column (2 × 20 mm), and gradient elution. The area of precursor compound remaining after each time points relative to the amount remaining at time zero, expressed as percent, is calculated. Subsequently, the half-life (t1/2) was estimated from the slope of the initial linear range of the logarithmic curve of the compound remaining (%) versus time, assuming first order kinetics.
# Human plasma stability = settings: human plasma, 1 µM, 37 °C
# Description: as §3, §4
# [1] = tested on: scopolamine-induced memory impairment in mice; assay: Passive avoidance task, scopolamine-induced memory impairment; type: in vivo, Albino Swiss (CD–1 Krf) mice
# Description: The first behavioral test performed was the passive avoidance (PA) task, which allows the evaluation of the effects of a drug on fear-motivated contextual memory. […] In the passive avoidance task, better memory performance is determined according to a longer step-through latency in the retention trial (i.e., the testing phase) than in the acquisition trial (i.e., the conditioning phase). […] The mice had free access to food and water, and the ambient temperature and humidity of the room were kept constant throughout all of the tests. For the behavioral tasks, the mice were selected at random, and each group consisted of 8 to 10 mice dose^−1. The experiments were performed between 08:00 and 14:00. Immediately after these in-vivo assays, the animals were euthanized by cervical dislocation. […] All efforts were made to minimize the number of mice used and their suffering.
# The effect of the test compounds on acquisition and retention in the passive avoidance task was conducted accordingly to a previously described method^30. For this purpose, the passive avoidance apparatus was used (Panlab Harvard Apparatus, Spain).
# The testing phase was conducted 24 h after the acquisition phase. For the acquisition, each mouse was initially placed for 30 s in the light compartment (exploration period; guillotine gate closed). At the end of the exploration period the guillotine door between the light and the dark compartments was opened and the time elapsed before entering the black chamber was recorded. As soon as the mouse entered the dark compartment, the door automatically closed and an electrical shock (current intensity: 0.2 mA, duration: 2 s) was delivered through the grid floor.
# For the retention trial (drug off), the mice were placed in the illuminated white compartment again, and the latency time between door opening and entry into the dark compartment was recorded for each mouse. […] Better memory performance was indicated by longer latency before entry into the black chamber in the test (retention) phase than in the conditioning (acquisition) phase.
# [2] = tested on: scopolamine-induced memory impairment in mice; assay: Two-day radial arm water maze task, scopolamine-induced memory impairment; type: in vivo, C57BL/6J mice
# Description: In this task incorrect arm entries (i.e., errors) are counted. […] The mice had free access to food and water, and the ambient temperature and humidity of the room were kept constant throughout all of the tests. For the behavioral tasks, the mice were selected at random, and each group consisted of 8 to 10 mice dose^−1. The experiments were performed between 08:00 and 14:00. Immediately after these in-vivo assays, the animals were euthanized by cervical dislocation. […] All efforts were made to minimize the number of mice used and their suffering.
# C57BL/6J mice were subjected to the radial arm water maze paradigm^34,35. The main part of the apparatus (Panlab Harvard Apparatus, Spain) consists of a 6-arm maze in a pool filled with water to approximately 10 cm from the top, to be high enough to cover the hidden platform by about 0.5 cm, but also low enough that the visible platform was not covered. The pool was regularly cleaned of any debris left by the mice. The temperature of the water was kept constant during testing (23 ±1 °C). The tester remained in the same position throughout the testing, thus providing an additional visual cue for the mice.
# On day 1, 15 trials were run in five blocks of three. Each trial lasted up to 60 s. The start arm was varied for each trial, with the goal arm remaining constant for a given individual for both days^34,35. For the first 12 trials, the platform was alternately visible, then hidden, and then hidden for the last three trials. On day 2, the mice (without drug treatment on this day) were run in the same manner as on day 1, but the platform was hidden for all of the trials. As errors have been reported to be the most sensitive measure in this assay^34, the number of errors (i.e., incorrect arm entries made) was counted in a 60 s time-frame. Incorrect arm entries occurred when the mouse selected an arm that was not the goal arm. Entries into the goal arm were not counted as errors, even if the platform was not located. An entry was considered to occur when all four legs of the mice had entered the alley completely. […] If the platform was not located within 60 s, the mice were gently guided through the water by placing a hand behind the animal to direct its swimming direction toward the platform. […] After that, the mouse was gently removed from the platform and thoroughly dried using cellulose paper before placing it back into its home cage under a heat source (a heat lamp).
# For the statistical analysis of the data obtained, to minimize the impact of individual trial variability, each mouse error for the finding of the platform for three consecutive trials were averaged, giving five data points (5 trial blocks): T1 (trials 1–3), T2 (trials 4–6), T3 (trials 7–9), T4 (trials 10–12) and T5 (trials 13–15), separately for each day of testing.
# [3] = tested on: scopolamine-induced memory impairment in mice; assay: Morris water maze task, scopolamine-induced memory impairment; settings: for Distance in goal quadrant (% ±SEM) / Entries in zone NW (n ±SEM) / Latency time (s ±SEM) / Number of NW zone crossings (n ±SEM) / Time in target (NW) quadrant (s ±SEM) / Total distance covered (m ±SEM): probe trial day 7
# Description: In this task the time taken to reach the hidden platform (i.e., the escape latency time), the distance travelled, and the mean speed of swimming are recorded for each experimental group. […] For the behavioral tasks, the mice were selected at random, and each group consisted of 8 to 10 mice dose^−1. The experiments were performed between 08:00 and 14:00. Immediately after these in-vivo assays, the animals were euthanized by cervical dislocation. […] All efforts were made to minimize the number of mice used and their suffering.
# The Morris water maze is a circular, plastic, grey-painted pool (diameter, 120 cm; height, 60 cm), filled with water (up to about 48 cm below the edge, to prevent an animal from jumping out) that was maintained at 23 ±1 °C. The pool was divided into four equal quadrants (compass locations: NE, NW, SE, SW) by a computerized video tracking system (SMART, ver. 3.0; Panlab, Spain). An escape platform (diameter, 11 cm; height, 47 cm) at a fixed location (the center of the NW quadrant; i.e., the target quadrant). The escape platform was made of transparent Plexiglas and was immersed 1 cm under the surface of water; this was invisible to the swimming mouse. The maze was lighted with the intensity of 45 lx.
# During the spatial acquisition trial (six consecutive days), the mice were assigned to training sessions (four training sessions a day; 4 h apart) in which the mice were trained to escape from the water by reaching the hidden platform, the location of which could be identified using distal extra-maze cues (A4-sized sheets of black laminated paper with colored geometric symbols) attached to the room walls to provide navigation points^31. Visual cues had different colors and dimensions, and were kept constant during the whole experiment^31,32. The whole experiment was conducted by an experimenter who remained always stationary in a constant location, thus serving as an additional distal cue for the swimming mice. […] The time taken to reach the hidden platform (escape latency time), distance travelled to reach the platform, and mean speed were recorded in each experimental group and analyzed.
# On the seventh day (24 h after the last training) the platform was removed from the pool and a probe trial was performed (without drug treatment). Each animal was released from a different start point and was allowed to swim for 60 s. […] Latency time to the first crossing of the former platform location (target zone), number of crossings of the target zone, time spent in the target NW quadrant, total distance, distance spent in NW quadrant, entries into the NW quadrant, and mean speed were measured^31.
# T1 sequence (P06276 29-602): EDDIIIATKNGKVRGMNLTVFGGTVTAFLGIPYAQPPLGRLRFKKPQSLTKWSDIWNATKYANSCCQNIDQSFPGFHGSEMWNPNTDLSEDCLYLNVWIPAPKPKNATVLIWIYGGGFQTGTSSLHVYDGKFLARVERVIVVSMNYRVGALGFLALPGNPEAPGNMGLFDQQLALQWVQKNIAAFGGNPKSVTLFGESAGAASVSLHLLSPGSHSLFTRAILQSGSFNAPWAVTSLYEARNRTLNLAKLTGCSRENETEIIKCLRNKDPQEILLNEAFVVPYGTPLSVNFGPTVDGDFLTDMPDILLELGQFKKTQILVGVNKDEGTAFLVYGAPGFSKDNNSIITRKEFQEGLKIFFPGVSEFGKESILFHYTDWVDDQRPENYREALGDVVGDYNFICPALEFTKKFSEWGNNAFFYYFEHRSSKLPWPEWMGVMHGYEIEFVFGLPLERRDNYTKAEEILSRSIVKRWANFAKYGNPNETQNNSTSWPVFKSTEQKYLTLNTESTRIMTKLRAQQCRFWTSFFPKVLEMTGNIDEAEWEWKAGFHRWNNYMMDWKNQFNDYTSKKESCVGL
smiles,measurement,setting,value
"CCCC(=O)SCC[N+](C)(C)C.[I-] [BTCI, butyrylthiocholine iodide]",kcat (s^-1) ± SD,huBChE,852 ± 8 s⁻¹
same,Km,huBChE; read-out: Km (µM) ± SD,38.5 ± 0.3 µM
COC(=O)c1ccccc1-c1c2ccc(=N)cc-2oc2cc(N)ccc12 [Rhodamine123],efflux ratio at 120 min,ABCB1; Caco-2,2.5
same,Papp A→B at 120 min,ABCB1; after inhibition with PSC833,10 nm/s
same,Papp A→B at 120 min,ABCB1; no inhibitor,11 nm/s
same,Papp B→A at 120 min,ABCB1; after inhibition with PSC833,25 nm/s
same,Papp B→A at 120 min,ABCB1; no inhibitor,77 nm/s
same,efflux ratio,Caco-2 cells,7.3
"CCCOc1cc(N)ccc1C(=O)OCCN(CC)CC [Propoxycaine, reference compound]",half-life at 1 µM,in vitro,3.3 min
same,Half-Life t1/2 (min) 2nd,Human plasma stability,3.0 min
same,Half-Life t1/2 (min) Mean,Human plasma stability,3 min
"CC(C)[N+](C)(CCOC(=O)C1c2ccccc2Oc2ccccc21)C(C)C [Propantheline, reference compound]",half-life at 1 µM,in vitro,17.9 min
same,Half-Life t1/2 (min) 2nd,Human plasma stability,18.0 min
same,Half-Life t1/2 (min) Mean,Human plasma stability,18 min
"CCN(C)C(=O)Oc1cccc([C@H](C)N(C)C)c1 [Rivastigmine, rivastigmine]",effect on step-through latency,[1]; 0.5 mg kg^−1 rivastigmine + scopolamine,not active
same,"step-through latency, retention trial",[1]; 1 mg kg^−1 rivastigmine + scopolamine,85 s
same,"step-through latency, retention trial",[1]; 2.5 mg kg^−1 rivastigmine + scopolamine,99 s
same,effect in the RAWM task,[2]; scopolamine + 1 mg kg^−1,not effective
same,errors at the end of the acquisition phase (day 1),[2]; scopolamine + 2.5 mg kg^−1,< 1 error
same,distance travelled to reach the platform,"[3]; day 3, scopolamine + 1 mg kg^−1",4.62 m
same,distance travelled to reach the platform,"[3]; day 3, scopolamine + 2.5 mg kg^−1",3.64 m
same,distance travelled to reach the platform,"[3]; day 5, scopolamine + 1 mg kg^−1",1.58 m
same,distance travelled to reach the platform,"[3]; day 5, scopolamine + 2.5 mg kg^−1",1.74 m
same,Distance in goal quadrant (% ±SEM),[3]; scopolamine + 1 mg kg^–1,"58.6 ±4.4 F[3,33] = 3.307; p<0.05%"
same,Entries in zone NW (n ±SEM),[3]; scopolamine + 1 mg kg^–1,"6.3 ±0.5 F[3,33] = 14.87; p <0.0001 n"
same,Latency time (s ±SEM),[3]; scopolamine + 1 mg kg^–1,"2.1 ±0.9 F[3,33] = 0.7484; NS s"
same,Number of NW zone crossings (n ±SEM),[3]; scopolamine + 1 mg kg^–1,"4.5 ±0.8 F[3,33] = 1.472; NS n"
same,Time in target (NW) quadrant (s ±SEM),[3]; scopolamine + 1 mg kg^–1,35.9 ±2.8 F[3.33] = 3.824; p <0.05 s
same,Total distance covered (m ±SEM),[3]; scopolamine + 1 mg kg^–1,"11.3 ±0.5 F[3,33] = 0.1719; NS m"
same,Distance in goal quadrant (% ±SEM),[3]; scopolamine + 2.5 mg kg^–1,54.0 ±4.4%
same,Entries in zone NW (n ±SEM),[3]; scopolamine + 2.5 mg kg^–1,7.4 ±0.6 n
same,Latency time (s ±SEM),[3]; scopolamine + 2.5 mg kg^–1,2.1 ± 1.0 s
same,Number of NW zone crossings (n ±SEM),[3]; scopolamine + 2.5 mg kg^–1,3.8 ±0.8 n
same,Time in target (NW) quadrant (s ±SEM),[3]; scopolamine + 2.5 mg kg^–1,33.5 ± 2.7 s
same,Total distance covered (m ±SEM),[3]; scopolamine + 2.5 mg kg^–1,11.0 ±0.4 m
same,mean speed of swimming,[3]; scopolamine + 1 mg kg^−1,0.15 m s^−1
same,mean speed of swimming,[3]; scopolamine + 2.5 mg kg^−1,0.12 m s^−1
"CN1[C@@H]2C[C@@H](OC(=O)[C@H](CO)c3ccccc3)C[C@H]1[C@@H]1O[C@@H]12 [scopolamine, (−)-Scopolamine hydrobromide]",mean errors by the end of the five blocks of trials (day 1),[2]; scopolamine-treated control,~3 errors
same,distance travelled to reach the platform,"[3]; day 3, scopolamine treated control (vehicle 3.77 m)",8.71 m
same,distance travelled to reach the platform,"[3]; day 5, scopolamine treated control (vehicle 1.94 m)",5.40 m
same,Distance in goal quadrant (% ±SEM),[3]; vehicle + scopolamine control,45.4 ±3.8%
same,Entries in zone NW (n ±SEM),[3]; vehicle + scopolamine control,6.4 ±0.7 n
same,Latency time (s ±SEM),[3]; vehicle + scopolamine control,1.3 ± 0.4 s
same,Number of NW zone crossings (n ±SEM),[3]; vehicle + scopolamine control,2.4 ±0.5 n
same,Time in target (NW) quadrant (s ±SEM),[3]; vehicle + scopolamine control,26.7 ± 2.5 s
same,Total distance covered (m ±SEM),[3]; vehicle + scopolamine control,11.3 ±0.3 m
same,mean speed of swimming,[3]; scopolamine alone,0.15 m s^−1
